Here are results for eight compounds from patent US9770500B2 (priority 2011, dated 2017).

In data set [1] the target is T1, TcdB (Clostridioides difficile, UniProt P18177). It is filed as biochemical, Clostridium difficile.
Another data set has as its system C. difficile VPI 10463. It is filed as in vivo, C57BL/6 mice. The source says: Murine C. Difficile Infection Model. A conventional mouse model of antibiotic-induced C. difficile infection that closely resembles the spectrum of disease manifest in humans was used as described (Chen et al., Gastroenterology 135:1984-92 (2008)). Disease severity varies from fulminant with typical histopathologic features of C. difficile infection, to minimal diarrhea depending on challenge dose. 12 week-old C57BL/6 mice were pre-treated for three days with a mixture of antibiotics shown to disrupt the intestinal microflora (Chen et al., Gastroenterology 135:1984-92 (2008)). After two days, mice were injected with clindamycin and were challenged intragastrically with 10^6 C. difficile VPI 10463 vegetative cells the following day. […] Oral administration of vancomycin (50 mg/kg/day) was used as a positive control.

The target of a further data set is deoxygenated hemoglobin (Homo sapiens, UniProt P68871). In kind it is binding.
In data set [2] the target is T2, TcdA (Clostridioides difficile, UniProt P16154). In kind it is in vivo, Cd-1 mice. The protocol:
TcdA-Exposure of Mouse Ileal Loops. Cd-1 mice (10 week old males; Charles River Labs) were fasted overnight. Ileal loops were ligated in anesthetized animals via laparotomy and injected with 0.15 ml of purified TcdA, TcdA-SNO or TcdA-NEM (10 μg) or buffer as described (Savidge et al., Gastroenterology 125:413-20 (2003); Oiu et al., Gastroenterology 111: 409-18 (1996)). […] Four hrs after TcdA administration, mice were euthanized and fluid secretion was determined as the loop weight ([…])-to-length (cm) ratio. Full thickness loops were frozen in liquid nitrogen or fixed in 10% formalin in PBS (pH 7.2) for 24 hours and embedded in paraffin using routine procedures. Histological severity of enteritis was evaluated by assessing (1) epithelial cell necrosis, (2) hemorrhagic congestion and edema of the mucosa, and (3) neutrophil margination and tissue infiltration (Savidge et al., Gastroenterology 125:413-20 (2003); Oiu et al., Gastroenterology 111: 409-18 (1996)).
Myeloperoxidase Assay. Neutrophil myeloperoxidase (MPO) activity is an indicator of tissue inflammation. Intestinal segments (100-250 mg) were homogenized in 1 ml HTAB buffer and centrifuged at 20,000×g for 10 min at 4° C. Pellets were resuspended in 1 ml HTAB buffer containing 1% hexadecyltrimethlammonium to negate pseudoperoxidase activity. MPO activity was measured in supernatants following 3 cycles of sonication, freezing and thawing. After centrifugation at 40,000×g for 15 min at 4° C., supernatants (10 μl) were mixed with 90 μl of potassium phosphate buffer containing 0.167 mg/ml O-dianiside dihydrochloride and 0.0005% hydrogen peroxide. Activity was measured every 2 minutes for 20 minutes at 450 nm.
Quantitative Cytokine mRNA Measurements. Total RNA was extracted from cells or frozen tissues, treated with 1 U DNAse I and reversed transcribed (Gene Amp RNA-PCR Kit). Real-time rtPCR reactions were run with SYBR Green PCR Master-Mix for 40 cycles on a Chromo4 detector (Bio-Rad Ltd) (94° C. for 2 min; 94° C. for 1 min; 60° C. for 1 min; 72QC for lmin; repeat step 2-to-4 for 40 cycles; 72° C. for 10 min). Primer sets were for human IL-8: (Forward 5′-[…]-3′ SEQ ID NO:2; Reverse 5′-[…]-3′ SEQ ID NO:3); murine TNFα (Forward 5′-[…]-3′ SEQ ID NO:4, Reverse 5′-[…] […]-3′ SEQ ID NO:5); murine […] (Forward 5′-TTGAC[…]-3′ SEQ ID NO:6, Reverse 5′-[…]-3′ SEQ ID NO:7). Samples were normalized against commercial GAPDH or 18S rRNA primers and probes (Applied Biosystems) and relative expression levels were calculated as previously described (Savidge et al., Gastroenterology 132:1344-58 (2007)).

Another data set has as its system Caco-2 cells. As to conditions: MTT, TcdB 3.7 nM for 10 min.
In data set [3] the target is T2, TcdA. The experiment in a line: cell-based.
The conditions of data set [4]: in vivo; cited from earlier work.
Data set [5] concerns the target T1, TcdB.
In data set [6] the target is C. difficile TcdA holotoxin (Clostridioides difficile, UniProt P16154). It is filed as binding, Clostridium difficile.
Data set [7] deals with toxin glucosyltransferase activity (Clostridioides difficile, UniProt P16154). In kind it is biochemical, Clostridium difficile. The protocol:
Cell Free Rac1 Glucosvlation Assay. Glucosyltransferase activity of TcdA and TcdA-SNO was measured by their ability to glucosylate Rho GTPase Rac1 in a cell-free assay. Caco-2 cell pellets were resuspended in glucosylation buffer (50 mM HEPES, pH 7.5, 100 mM KCl, 1 mM MnCl2 and 2 mM MgCl2) and lysed with a syringe (25G, 40 passes through the needle). After centrifugation (167,000×g, 3 min), the supernatant was used as a post-nuclear cell lysate. To perform the glucosylation assay, the cell lysates were incubated with TcdA or TcdA-SNO (final concentration of the toxins was 5 μg/ml) at 37° C. for 30 min. The reaction was terminated by heating at 100° C. for 5 min in SDS-sample buffer. To measure Rac1 glucosylation levels, lysates were separated on a 4-20% gradient SDS-PAGE gel and transferred onto a nitrocellulose membrane. An antibody that specifically recognizes the non-glucosylated form of Rac1 (clone 102, BD Bioscience) was used for detection.

T2 sequence (P16154 whole entry, looked up): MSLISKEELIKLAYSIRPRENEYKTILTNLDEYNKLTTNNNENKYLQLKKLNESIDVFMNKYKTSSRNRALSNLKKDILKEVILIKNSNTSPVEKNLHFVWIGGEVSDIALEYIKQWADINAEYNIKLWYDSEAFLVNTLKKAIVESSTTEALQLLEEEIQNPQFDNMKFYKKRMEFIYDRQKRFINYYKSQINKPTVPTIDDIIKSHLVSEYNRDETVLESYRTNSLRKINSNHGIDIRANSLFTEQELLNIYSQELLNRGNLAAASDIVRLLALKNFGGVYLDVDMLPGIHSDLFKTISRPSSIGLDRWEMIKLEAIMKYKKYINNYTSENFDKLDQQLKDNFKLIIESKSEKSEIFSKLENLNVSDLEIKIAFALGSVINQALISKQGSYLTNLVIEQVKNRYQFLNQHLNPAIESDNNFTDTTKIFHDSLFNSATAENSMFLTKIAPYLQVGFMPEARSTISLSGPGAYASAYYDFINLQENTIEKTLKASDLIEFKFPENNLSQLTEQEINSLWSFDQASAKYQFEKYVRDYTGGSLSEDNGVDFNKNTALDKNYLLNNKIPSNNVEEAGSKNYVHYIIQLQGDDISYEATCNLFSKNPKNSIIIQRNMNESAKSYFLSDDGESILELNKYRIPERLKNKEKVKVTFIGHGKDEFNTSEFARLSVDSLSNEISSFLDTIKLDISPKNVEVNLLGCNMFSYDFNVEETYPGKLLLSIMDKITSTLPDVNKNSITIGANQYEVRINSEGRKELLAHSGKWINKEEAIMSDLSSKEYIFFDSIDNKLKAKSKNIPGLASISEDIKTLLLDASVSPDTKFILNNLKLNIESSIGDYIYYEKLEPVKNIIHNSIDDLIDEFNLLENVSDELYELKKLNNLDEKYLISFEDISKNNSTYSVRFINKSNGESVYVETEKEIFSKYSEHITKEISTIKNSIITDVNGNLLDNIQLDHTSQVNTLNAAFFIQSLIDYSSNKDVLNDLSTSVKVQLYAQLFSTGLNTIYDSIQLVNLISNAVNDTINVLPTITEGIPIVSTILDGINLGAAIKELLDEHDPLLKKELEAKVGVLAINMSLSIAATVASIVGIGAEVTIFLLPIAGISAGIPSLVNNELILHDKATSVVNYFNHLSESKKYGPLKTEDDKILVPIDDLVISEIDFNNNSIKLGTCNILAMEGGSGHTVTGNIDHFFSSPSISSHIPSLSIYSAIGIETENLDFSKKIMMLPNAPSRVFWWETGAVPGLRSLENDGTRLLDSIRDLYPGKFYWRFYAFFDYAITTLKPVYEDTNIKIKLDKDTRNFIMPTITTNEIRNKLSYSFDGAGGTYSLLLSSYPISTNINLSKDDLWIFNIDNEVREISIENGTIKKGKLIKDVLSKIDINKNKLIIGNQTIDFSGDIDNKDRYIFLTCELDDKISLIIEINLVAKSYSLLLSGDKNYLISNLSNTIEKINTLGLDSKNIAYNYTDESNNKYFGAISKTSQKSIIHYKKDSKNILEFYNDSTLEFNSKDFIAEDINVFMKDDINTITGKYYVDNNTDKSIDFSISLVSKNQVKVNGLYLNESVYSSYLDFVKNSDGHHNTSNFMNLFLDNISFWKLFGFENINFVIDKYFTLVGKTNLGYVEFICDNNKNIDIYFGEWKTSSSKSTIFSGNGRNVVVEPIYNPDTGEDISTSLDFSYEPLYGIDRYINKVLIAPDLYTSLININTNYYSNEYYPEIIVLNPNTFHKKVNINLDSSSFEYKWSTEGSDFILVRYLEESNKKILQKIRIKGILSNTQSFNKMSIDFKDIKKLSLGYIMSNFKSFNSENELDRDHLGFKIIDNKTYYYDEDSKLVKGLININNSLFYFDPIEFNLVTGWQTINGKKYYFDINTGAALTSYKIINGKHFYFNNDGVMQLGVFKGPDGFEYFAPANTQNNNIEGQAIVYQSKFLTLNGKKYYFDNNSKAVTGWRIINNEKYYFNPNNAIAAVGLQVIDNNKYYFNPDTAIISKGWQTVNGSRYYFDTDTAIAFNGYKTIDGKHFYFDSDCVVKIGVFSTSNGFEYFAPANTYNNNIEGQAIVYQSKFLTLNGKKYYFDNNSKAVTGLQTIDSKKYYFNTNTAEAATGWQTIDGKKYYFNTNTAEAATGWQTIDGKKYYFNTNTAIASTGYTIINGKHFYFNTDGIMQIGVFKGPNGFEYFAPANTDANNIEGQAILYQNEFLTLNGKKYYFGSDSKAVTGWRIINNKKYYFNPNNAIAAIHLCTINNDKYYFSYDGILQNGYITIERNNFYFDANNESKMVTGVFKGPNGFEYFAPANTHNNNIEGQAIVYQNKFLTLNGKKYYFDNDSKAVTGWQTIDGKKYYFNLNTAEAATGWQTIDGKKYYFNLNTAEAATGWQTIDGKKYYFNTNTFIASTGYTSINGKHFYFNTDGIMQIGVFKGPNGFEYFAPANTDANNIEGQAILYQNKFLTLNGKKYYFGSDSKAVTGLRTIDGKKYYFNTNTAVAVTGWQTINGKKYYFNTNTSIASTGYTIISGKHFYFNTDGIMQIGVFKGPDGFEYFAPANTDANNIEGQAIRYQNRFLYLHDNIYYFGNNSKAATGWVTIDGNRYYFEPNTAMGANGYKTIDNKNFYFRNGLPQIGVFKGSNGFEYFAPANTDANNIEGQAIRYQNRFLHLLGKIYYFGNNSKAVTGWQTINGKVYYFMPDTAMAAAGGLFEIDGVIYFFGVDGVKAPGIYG
T1 sequence (P18177 2-2366 limits assumed): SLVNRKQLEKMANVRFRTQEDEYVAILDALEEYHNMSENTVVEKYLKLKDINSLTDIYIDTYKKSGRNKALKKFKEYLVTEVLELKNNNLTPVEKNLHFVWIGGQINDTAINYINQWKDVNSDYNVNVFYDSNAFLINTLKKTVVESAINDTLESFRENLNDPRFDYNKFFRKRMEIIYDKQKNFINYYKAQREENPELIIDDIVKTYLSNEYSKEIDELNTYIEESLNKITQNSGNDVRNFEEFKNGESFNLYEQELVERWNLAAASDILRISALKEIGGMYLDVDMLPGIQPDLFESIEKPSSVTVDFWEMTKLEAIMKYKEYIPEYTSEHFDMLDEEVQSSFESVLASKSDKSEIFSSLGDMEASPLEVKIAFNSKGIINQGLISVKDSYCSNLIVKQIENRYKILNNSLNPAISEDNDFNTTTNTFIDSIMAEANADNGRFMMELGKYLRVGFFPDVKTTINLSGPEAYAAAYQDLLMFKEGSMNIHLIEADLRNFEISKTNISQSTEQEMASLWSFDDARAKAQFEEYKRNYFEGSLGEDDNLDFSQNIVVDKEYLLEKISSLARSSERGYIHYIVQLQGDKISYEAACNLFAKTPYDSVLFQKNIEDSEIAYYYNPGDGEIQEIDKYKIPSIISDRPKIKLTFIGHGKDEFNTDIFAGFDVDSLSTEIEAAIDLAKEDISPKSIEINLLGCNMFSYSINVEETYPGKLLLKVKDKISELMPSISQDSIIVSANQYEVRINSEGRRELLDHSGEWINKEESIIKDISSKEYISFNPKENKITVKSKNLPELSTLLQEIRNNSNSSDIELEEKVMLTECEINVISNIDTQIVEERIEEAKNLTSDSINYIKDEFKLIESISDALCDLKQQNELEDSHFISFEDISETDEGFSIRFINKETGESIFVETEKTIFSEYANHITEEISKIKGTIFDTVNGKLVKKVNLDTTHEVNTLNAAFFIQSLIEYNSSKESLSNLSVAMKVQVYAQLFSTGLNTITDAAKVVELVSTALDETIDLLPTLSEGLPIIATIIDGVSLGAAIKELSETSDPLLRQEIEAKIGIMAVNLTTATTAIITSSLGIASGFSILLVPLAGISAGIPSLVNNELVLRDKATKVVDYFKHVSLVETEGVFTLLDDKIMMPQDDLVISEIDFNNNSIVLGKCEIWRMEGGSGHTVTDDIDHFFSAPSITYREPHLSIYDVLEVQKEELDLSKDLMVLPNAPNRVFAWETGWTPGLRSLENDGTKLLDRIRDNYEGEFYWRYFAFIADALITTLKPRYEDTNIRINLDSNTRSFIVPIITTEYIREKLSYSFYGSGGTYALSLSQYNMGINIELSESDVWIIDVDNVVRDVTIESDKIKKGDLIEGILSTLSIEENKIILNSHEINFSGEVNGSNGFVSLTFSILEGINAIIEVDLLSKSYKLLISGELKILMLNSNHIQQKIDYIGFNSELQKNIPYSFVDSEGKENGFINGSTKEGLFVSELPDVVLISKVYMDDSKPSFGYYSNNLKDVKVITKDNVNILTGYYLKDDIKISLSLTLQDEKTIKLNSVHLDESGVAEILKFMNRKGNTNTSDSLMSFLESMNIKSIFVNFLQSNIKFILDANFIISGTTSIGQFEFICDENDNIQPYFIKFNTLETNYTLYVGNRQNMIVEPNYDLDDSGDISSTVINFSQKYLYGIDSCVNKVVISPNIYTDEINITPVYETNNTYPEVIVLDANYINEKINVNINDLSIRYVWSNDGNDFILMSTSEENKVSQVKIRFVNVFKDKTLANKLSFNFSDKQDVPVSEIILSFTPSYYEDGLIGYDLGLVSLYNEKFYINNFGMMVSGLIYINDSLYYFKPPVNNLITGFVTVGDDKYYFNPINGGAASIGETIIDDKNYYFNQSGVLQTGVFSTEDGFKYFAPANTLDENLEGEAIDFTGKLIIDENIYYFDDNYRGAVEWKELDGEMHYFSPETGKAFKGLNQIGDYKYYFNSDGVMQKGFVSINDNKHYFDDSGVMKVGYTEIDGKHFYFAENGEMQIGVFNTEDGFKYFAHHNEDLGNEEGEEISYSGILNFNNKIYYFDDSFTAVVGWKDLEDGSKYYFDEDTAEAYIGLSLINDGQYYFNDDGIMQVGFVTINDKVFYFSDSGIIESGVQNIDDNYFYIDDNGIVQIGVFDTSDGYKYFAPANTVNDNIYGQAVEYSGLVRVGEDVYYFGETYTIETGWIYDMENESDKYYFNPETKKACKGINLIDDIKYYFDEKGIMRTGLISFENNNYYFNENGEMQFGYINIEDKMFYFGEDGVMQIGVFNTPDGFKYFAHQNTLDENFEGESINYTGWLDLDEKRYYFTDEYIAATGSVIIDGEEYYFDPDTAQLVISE

In the case of `O[C@H](CS)[C@H](O)CS` (racemic) [DTT, dithiothreitol], the “toxin autocleavage with agent alone” value on TcdB [1] is recorded as “No significant toxin autocleavage”.

In the case of “(rac1)-1(3)-PP-(2,3,4,5,6)InsP5 [r-InsP7]”, the TcdB autocleavage activity entry at TcdB [1] is reported as “not significantly different”.

On to `O=P(O)(O)OC1C(OP(=O)(O)O)C(OP(=O)(O)O)C(OP(=O)(O)O)C(OP(=O)(O)O)C1OP(=O)(O)O` (stereo not shown) [InsP6, inositol hexakisphosphate], for which, in the data set with C. difficile VPI 10463 (oral InsP6 0.25 mg/kg/day with GSNO 10 mg/kg/day), the “effect of added InsP6 on survival benefit of GSNO” value is “potentiated”. The binding affinity on deoxygenated hemoglobin is recorded as over 1.6 nM/mg protein. For the same compound, the “effect of added InsP6 on GSNO inhibition of TNF-α and IL-1γ transcripts” value on TcdA [2] (InsP6 1 mM with GSNO) was “potentiated”. On TcdA [2] (InsP6 1 mM with GSNO 10 mg/kg), the “effect of added InsP6 on GSNO protection against fluid secretion” value is on record as “enhanced”.

Regarding `N[C@@H](CCC(=O)N[C@@H](CS)C(=O)NCC(=O)O)C(=O)O` [GSH, glutathione], on TcdB [1], the “effect on InsP6 induced TcdB autocleavage” value is reported as “potentiated” and the “toxin autocleavage with agent alone” value is given as “No significant toxin autocleavage”.

With `CCOC(=O)CNC(=O)[C@H](CS)NC(=O)CC[C@H](N)C(=O)O` [GSH-EE, GSH-ethyl ester], in the data set on Caco-2 cells, the “effect on cytoprotection of eNOS expressing Caco-2 cells against TcdB” value is “reversed”.

As for `COC(=O)[C@@H](N)CCCNC(=N)N[N+](=O)[O-]` [L-NAME, N^G-nitro-L-arginine methyl ester], the “effect on cytoprotection of eNOS expressing Caco-2 cells against TcdB” value with Caco-2 cells was “reversed”.

As usually defined, the IC50 is the concentration that inhibits the measured activity by half. Read a high IC50 as lower potency. In the case of `N[C@@H](CCC(=O)N[C@@H](CSN=O)C(=O)NCC(=O)O)C(=O)O` [GSNO, S-nitrosoglutathione], half-maximal inhibition against TcdA [3] (IC50) was put at 57.9 µM. The “survival (Kaplan-Meier)” value with C. difficile VPI 10463 (oral gavage GSNO 10 mg/kg/day) is on record as “survival benefit”. Moreover, the “effect on InsP6 induced TcdB autocleavage” value on TcdB [1] is “inhibited”. For the same compound, in the data set with C. difficile toxin, the “toxin binding to Caco-2 cells” value is reported as “did not inhibit”. The tolerability result in data set [4] was “well tolerated”. Besides, on TcdB [5], the “IC50 of GSNO with inositolphosphate cofactor” value is recorded as “low micromolar range”. Further, in [6], the “effect on InsP6 binding to the cysteine protease domain” value is listed as “significantly inhibited”. Also, the “glucosyltransferase activity in cell lysates” value in data set [7] is “did not inhibit toxin binding to Caco-2 cells or alter glucosyltransferase activity”. The “TcdA induced fluid secretion in murine ileal loops” value on TcdA [2] (GSNO 10 mg/kg in 0.1 ml, TcdA 10 μg, 4 hrs) is “inhibits”. Moreover, the “TcdA induced TNF-α and IL-1γ gene transcripts” value at TcdA [2] (TcdA 10 μg, 4 hrs) was “significantly attenuated”. Further, the “toxin-induced disease activity (histological damage, inflammation, intestinal secretion)” value at TcdA [2] (co-injected with TcdA into ileal loops for 4 hrs) was “markedly reduced”.

As to D-myo-5-PP-(1,2,3,4,6)InsP5 [m-InsP7], the TcdB autocleavage activity entry at TcdB [1] was “not significantly different”.
